Measured values reported in patent publication US11058661B2, “Compositions and methods for lowering triglycerides in a subject on concomitant statin therapy and having hsCRP levels of at least about 2 mg/L” (priority 2018, dated 2021).

How the values were obtained:
[1] = test system: statin-treated patients with fasting TG ≥200 and <500 mg/dL; test: ANCHOR study, entire population: fasting TG; type: in vivo, human; conditions: 4 g/day
Experimental: A multi-center, placebo-controlled, randomized, double-blind, 12-week study is performed to evaluate the efficacy and safety of >96% E-EPA in patients with fasting triglyceride levels ≥200 mg/dl and <500 mg/dl despite statin therapy (the mean of two qualifying entry values needs to be ≥185 mg/dl and at least one of the values needs to be ≥200 mg/dl). The primary objective of the study is to determine the efficacy of >96% E-EPA 2 g daily and 4 g daily, compared to placebo, in lowering fasting TG levels in patients with high risk for cardiovascular disease and with fasting TG levels ≥200 mg/dL and <500 mg/dL, despite treatment to LDL-C goal on statin therapy.
The population for this study is men and women >18 years of age with a body mass index ≤45 kg/m^2 with fasting TG levels greater than or equal to 200 mg/dl and less than 500 mg/dl and on a stable does of statin therapy (with or without ezetimibe). The statin must be atorvastatin, rosuvastatin or simvastatin. The dose of statin must be stable for ≥4 weeks prior to the LDL-C/TG baseline qualifying measurement for randomization. The statin dose will be optimal such that the patients are at their LDL-C goal at the LDL-C/TG baseline qualifying measurements. The same statin at the same dose will be continued until the study ends. […]

[2] = AAMI pilot study: essential fatty acids in plasma and RBC; type: in vivo, human
Experimental: Blood samples (10 mL) were collected at Visit 1 (screening) and at Visits 4, 5 and 6. Analysis was performed by MSR Lipid Analysis, Scottish Crop Research Institute, Dundee, UK. The screening sample acted as baseline for the EFA measurements. Lipid was extracted from plasma, serum and RBC suspensions and converted into fatty acid methyl esters which were analyzed by gas chromatography to give fatty acid profiles as micrograms fatty acid per gram of sample (μgFA/g) and normalized area percent. RBC and plasma EFA data were collected at baseline, Day 14, 28 and 42 and summarized by visit for each treatment group. Change from baseline and percent change from baseline were also summarized. ANCOVA comparison of ethyl-EPA dose groups and ethyl-EPA versus placebo was performed.

SMILES: CC/C=C\C/C=C\C/C=C\C/C=C\C/C=C\CCCC(=O)OCC [Icosapent Ethyl, ethyl eicosapentaenoate]
- reduction of median TG from baseline compared with placebo [1]: 21.5%
- DHA LS Mean, 1 g versus 4 g ([2]; RBC): 1.0 µg/g
- DHA LS Mean, 2 g versus 4 g ([2]; RBC): 1.0 µg/g
- DPAn-3 LS Mean, 1 g versus 4 g ([2]; RBC): -6.2 µg/g
- DPAn-3 LS Mean, 2 g versus 4 g ([2]; RBC): -2.5 µg/g
- AA Mean (SD) change from Baseline ([2]; RBC, Day 14, 1 g): −8.1 (21.95) μg/g
- DGLA Mean (SD) change from Baseline ([2]; RBC, Day 14, 1 g): −2.7 (3.82) μg/g
- DHA Mean (SD) change from Baseline ([2]; RBC, Day 14, 1 g): −4.6 (9.76) μg/g
- DPAn-3 Mean (SD) change from Baseline ([2]; RBC, Day 14, 1 g): 0.9 (5.03) μg/g
- EPA/AA Mean (SD) change from Baseline ([2]; RBC, Day 14, 1 g): 0.1 (0.04) μg/g
- AA Mean (SD) change from Baseline ([2]; RBC, Day 14, 2 g): −3.1 (25.84) μg/g
- DGLA Mean (SD) change from Baseline ([2]; RBC, Day 14, 2 g): −2.6 (3.54) μg/g
- DHA Mean (SD) change from Baseline ([2]; RBC, Day 14, 2 g): −2.0 (9.46) μg/g
- DPAn-3 Mean (SD) change from Baseline ([2]; RBC, Day 14, 2 g): 5.6 (6.28) μg/g
- EPA/AA Mean (SD) change from Baseline ([2]; RBC, Day 14, 2 g): 0.2 (0.04) μg/g
- DGLA Mean (SD) change from Baseline ([2]; RBC, Day 14, 4 g): −5.3 (4.10) μg/g
- DHA Mean (SD) change from Baseline ([2]; RBC, Day 14, 4 g): −6.9 (9.13) μg/g
- DPAn-3 Mean (SD) change from Baseline ([2]; RBC, Day 14, 4 g): 5.4 (5.38) μg/g
- EPA/AA Mean (SD) change from Baseline ([2]; RBC, Day 14, 4 g): 0.3 (0.07) μg/g
- AA Mean (SD) change from Baseline ([2]; RBC, Day 28, 1 g): −17.0 (20.69) μg/g
- DGLA Mean (SD) change from Baseline ([2]; RBC, Day 28, 1 g): −3.8 (3.31) μg/g
- DHA Mean (SD) change from Baseline ([2]; RBC, Day 28, 1 g): −6.4 (11.57) μg/g
- DPAn-3 Mean (SD) change from Baseline ([2]; RBC, Day 28, 1 g): 3.3 (5.42) μg/g
- EPA/AA Mean (SD) change from Baseline ([2]; RBC, Day 28, 1 g): 0.1 (0.05) μg/g
- DGLA Mean (SD) change from Baseline ([2]; RBC, Day 28, 2 g): −4.5 (3.58) μg/g
- DHA Mean (SD) change from Baseline ([2]; RBC, Day 28, 2 g): −6.2 (9.34) μg/g
- DPAn-3 Mean (SD) change from Baseline ([2]; RBC, Day 28, 2 g): 9.4 (6.74) μg/g
- EPA/AA Mean (SD) change from Baseline ([2]; RBC, Day 28, 2 g): 0.02 (0.06) μg/g
- DGLA Mean (SD) change from Baseline ([2]; RBC, Day 28, 4 g): −7.1 (4.63) μg/g
- DHA Mean (SD) change from Baseline ([2]; RBC, Day 28, 4 g): −8.7 (11.63) μg/g
- EPA/AA Mean (SD) change from Baseline ([2]; RBC, Day 28, 4 g): 0.4 (0.11) μg/g
- DGLA Mean (SD) change from Baseline ([2]; RBC, Day 42, 1 g): −3.5 (4.51) μg/g
- DHA Mean (SD) change from Baseline ([2]; RBC, Day 42, 1 g): −7.0 (12.20) μg/g
- DPAn-3 Mean (SD) change from Baseline ([2]; RBC, Day 42, 1 g): 6.5 (6.19) μg/g
- EPA/AA Mean (SD) change from Baseline ([2]; RBC, Day 42, 1 g): 0.1 (0.06) μg/g
- DGLA Mean (SD) change from Baseline ([2]; RBC, Day 42, 2 g): −5.3 (3.65) μg/g
- DHA Mean (SD) change from Baseline ([2]; RBC, Day 42, 2 g): −6.3 (9.42) μg/g
- EPA/AA Mean (SD) change from Baseline ([2]; RBC, Day 42, 2 g): 0.3 (0.06) μg/g
- DGLA Mean (SD) change from Baseline ([2]; RBC, Day 42, 4 g): −8.0 (4.98) μg/g
- EPA/AA Mean (SD) change from Baseline ([2]; RBC, Day 42, 4 g): 0.4 (0.14) μg/g
- DPAn-3 LS Mean, 2 g versus 4 g ([2]; plasma): -9.5 µg/g
- EPA values, change from baseline ([2]; plasma and RBC, to Day 42, 1, 2 and 4 g groups): increased substantially from baseline
- AA Mean (SD) change from Baseline ([2]; plasma, Day 14, 1 g): −9.7 (22.20) μg/g
- DHA Mean (SD) change from Baseline ([2]; plasma, Day 14, 1 g): −6.4 (13.30) μg/g
- DPAn-3 Mean (SD) change from Baseline ([2]; plasma, Day 14, 1 g): 7.5 (5.11) μg/g
- EPA/AA Mean (SD) change from Baseline ([2]; plasma, Day 14, 1 g): 0.3 (0.4) μg/g
- DHA Mean (SD) change from Baseline ([2]; plasma, Day 14, 2 g): −5.4 (14.29) μg/g
- EPA/AA Mean (SD) change from Baseline ([2]; plasma, Day 14, 2 g): 0.6 (0.23) μg/g
- EPA/AA Mean (SD) change from Baseline ([2]; plasma, Day 14, 4 g): 1.1 (0.28) μg/g
- DHA Mean (SD) change from Baseline ([2]; plasma, Day 28, 1 g): −6.6 (15.53) μg/g
- DPAn-3 Mean (SD) change from Baseline ([2]; plasma, Day 28, 1 g): 3.9 (5.62) μg/g
- EPA/AA Mean (SD) change from Baseline ([2]; plasma, Day 28, 1 g): 0.3 (0.20) μg/g
- DHA Mean (SD) change from Baseline ([2]; plasma, Day 28, 2 g): −8.1 (15.82) μg/g
- EPA/AA Mean (SD) change from Baseline ([2]; plasma, Day 28, 2 g): 0.8 (0.35) μg/g
- EPA/AA Mean (SD) change from Baseline ([2]; plasma, Day 28, 4 g): 1.3 (0.42) μg/g
- AA Mean (SD) change from Baseline ([2]; plasma, Day 42, 1 g): −8.7 (31.35) μg/g
- DGLA Mean (SD) change from Baseline ([2]; plasma, Day 42, 1 g): −9.4 (9.41) μg/g
- DHA Mean (SD) change from Baseline ([2]; plasma, Day 42, 1 g): −5.4 (18.17) μg/g
- EPA/AA Mean (SD) change from Baseline ([2]; plasma, Day 42, 1 g): 0.3 (0.24) μg/g
- DHA Mean (SD) change from Baseline ([2]; plasma, Day 42, 2 g): −6.0 (16.69) μg/g
- EPA/AA Mean (SD) change from Baseline ([2]; plasma, Day 42, 2 g): 0.7 (0.29) μg/g
- DPAn-3 Mean (SD) change from Baseline ([2]; plasma, Day 42, 4 g): 32.0 (16.01) μg/g
- EPA/AA Mean (SD) change from Baseline ([2]; plasma, Day 42, 4 g): 1.3 (0.45) μg/g
